Assay [1] addresses T1, MIF (Homo sapiens, UniProt P14174).
T1 construct: His tag (C); made in house; host or cells: Escherichia coli BL21 (DE3), pET-20b(+)
T1 sequence (P14174 2-115 limits assumed): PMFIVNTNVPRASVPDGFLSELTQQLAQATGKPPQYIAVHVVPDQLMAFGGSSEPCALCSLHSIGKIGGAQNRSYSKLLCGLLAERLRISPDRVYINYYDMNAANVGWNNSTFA
In words: MIF tautomerase activity inhibition (4-HPP substrate, UV 306 nm). It counts as biochemical. Here is the method: 2. Preparation of recombinant MIF and MIF2.
The detailed procedure to produce C-terminal His-tagged recombinant human MIF was reported in our previous publications.[1,4,5] rhMIF was expressed through transforming a pET-20b(+) plasmid containing the target gene into Escherichia coli BL21 (DE3) according to literature procedures.[6] Overexpression was performed and cells were collected and sonicated.
The obtained supernatant was applied to a medium pressure chromatography system (Biologic Duoflow) equipped with a His trap HP (5 mL) column with detection at 280 nm for the eluent.
The column was washed with a binding buffer containing 50 mM Tris and 10% glycerol at pH 7.4 and eluted with elution buffer containing 500 mM imidazole, 50 mM Tris, 10% glycerol at pH 7.4. The pure fractions (as judged by SDS-PAGE) were pooled and subjected to a PD-10 column (GE healthcare) that was equilibrated with PBS buffer at pH 7.4 to remove the high concentration of imidazole. The collected MIF solution was divided into 50 µL aliquots and stored at –80 °C. Purity of obtained protein was tested by SDS-PAGE and Coomassie staining.
The concentration of protein was determined using the Bradford assay.
(§1) The detailed procedure to produce recombinant human MIF2 was reported in our previous publications.[7] Gene sequences of the human MIF2 gene (Invitrogen) was adapted to bacterial expression. After subcloning into a pET20b(+) expression vector, IPTG-induced expression was performed in E.coli strain BL21(DE3). MIF2 proteins were overproduced overnight and harvested cells were resuspended and sonicated. The soluble fraction was puriﬁed using a Q sepharose column (GE Healthcare) with a gradient of NaCl. The fractions containing MIF2 were brought to 1.7 M ammonium sulfate and loaded on a phenyl sepharose column (GE Healthcare) and eluted with a gradient to 0 M ammonium sulfate in a 20 mM sodium phosphate buffer, pH 8.0. Finally, the proteins were purified by size exclusion chromatography on a Superdex75 column (GE Healthcare) in 20 mM sodium phosphate buffer, pH 8.0, with an elution volume characteristic for trimeric MIF2. The collected protein was concentrated using a VivaSpin centrifugation column with a molecular weight cut off at 5000 D a (Sartorius Stedim Biotech GmbH). Purified proteins were aliquoted, snap frozen in liquid nitrogen, and stored at –80 °C. Purity of obtained protein was tested by SDS-PAGE and coomassie staining. The concentration of protein was determined using the Bradford a ssay.
(§2) 3.1 MIF and MIF2 Inhibition
(§3) The protocol for measuring inhibition of MIF or MIF2 tautomerase enzyme activity was described previously.[5] 500 nM MIF solution (180 µL) or 100 nM MIF2 solution (180 µL) in boric acid buffer ([…], pH 6.2) was mixed with 20 mM EDTA solution (10 µL) in demineralized water. A solution of the desired compound dissolved in DMSO (10 µL) or blank DMSO (10 µL) was added. The resulting mixture was preincubated at room temperature for 10 minutes.
(§4) Subsequently, 50 µL of this mixture was mixed with 50 µL of a 1 mM 4-HPP solution for MIF or 1 mM PP solution for MIF2 in ammonium acetate buffer (50 mM, pH 6.0). Thereafter, MIF or MIF2 tautomerase activity was monitored by measuring the increase of UV absorbance at 306 nm for MIF or 300 nm for MIF2 over time. The MIF or MIF2 tautomerase activity of the mixture with blank DMSO dilution was set to 100% enzyme activity. Noncatalyzed conversion of the substrate in the mixture without MIF or MIF2 was set to 0%. The data acquired from the first 3 minutes of the measurement were used to calculate the initial conversion speed. All experiments were performed in triplicate and data processing was done using the program […]
(§5) Table S1. IC50 values (10 min) and inactivation parameters of synthesized compounds.
(§6) (1 picture or pasted object on this page, not shown here)

In assay [2] the target is T2, MIF2 (Homo sapiens, UniProt P30046).
T2 construct: made in house; host or cells: E. coli BL21(DE3), pET20b(+)
In words: hgDNA cleavage by MIF2 in presence of tautomerase inhibitors. It counts as biochemical. The settings on record: Figure S3/S7. The procedure:
(§7) 7. Nuclease activity of MIF and MIF2.
(§8) Human genomic DNA was obtained from RPE-1 cells by DNA extraction following the protocol described in literature.[10] The nuclease assays were conducted by following the procedure described previously.[8] hgDNA (200 ng/reaction) was incubated with MIF or MIF2 in final concentration of 0.62 -20 µM as indicated in 10Mm Tris-HCl buffer (pH 7.0) containing 10mM MgCl2 (B and C) or specific buffer as indicated at 37°C for two hours. The reaction was terminated with loading buffer containing 10mM EDTA and incubation on ice. The human genomic DNA samples were immediately separated on a 1% agarose gel containing SYBR Safe (ThermoFisher) in 0.5 X TBE buffer with initial switch time of 1.5 s and a final switch time of 3.5 s for 12 hours at 6 V/cm. DNA was further detected by chemiluminescence.
(§9) Figure S7. hgDNA cleavage activity of MIF and MIF2. (A) The MIF2 nuclease activity is Mg 2+- […]
(§10) BITC is a covalent inhibitor that can form covalent bond with the N-terminal proline.[11] (C) […]
as §6

Assay [3] concerns the target T1, MIF. In words: hgDNA cleavage by MIF in presence of tautomerase inhibitors. As to conditions: Figure S3/S7. It counts as biochemical. Here is the method: as §7, §8, §9, §10, §6
Assay [4] addresses T2, MIF2. The assay can be described thus: MIF2 tautomerase activity inhibition (PP substrate, UV 300 nm). It counts as biochemical. The settings on record: for IC50: n=3, read-out: IC50 MIF2. Here is the method: 2. Preparation of recombinant MIF and MIF2. […]
Purity of obtained protein was tested by SDS-PAGE and Coomassie staining. […]
as §1, §2, §3, §4, §5, §6

Assay [5] deals with T2, MIF2. In words: Kitz-Wilson inactivation kinetics on MIF2 tautomerase. It counts as biochemical. As to conditions: Kitz-Wilson analysis, ±SD, n=3. Here is the method: (§11) In order to derive the kinetic parameters for inactivation of MIFand MIF2, we employed the approach described by Kitz and Wilson. Briefly, four different concentrations of the inhibitor with four different pre-incubation times were selected. The assay conditions are described above with the difference in incubation time.
(§12) For the data analysis, the pre-incubation times for the different concentration of the inhibitor versus the remaining enzyme activity were plotted, so from the linear regression the slope of each concentration of the probe was obtained ( Table S3). Then the 1/slope versus 1/[inhibitor] were plotted (Figure 4) and from the linear regression line ki was derived from the 1/y -intercept and derived from the slope times the ki as described by Kitz and Wilson.
For example, for the probe 8 the equation is: Y = 7,476*X + 5,069 […]
(§13) Table S4. Kinetics studies results.
(§14) Time-dependent inhibition Kitz and Wilson curve […]
ln (MIF tautomerase activity %) […]
(§15) Time-dependent inhibition on MIF2 Y = 299,5*X + 11,14 […]

Assay [6] concerns the target T1, MIF. In words: Kitz-Wilson inactivation kinetics on MIF tautomerase. It counts as biochemical. Here is the method:
as §11, §12
For example, for the probe 8 the equation is: Y = 7,476*X + 5,069
So, the kinact and the KI values are: kinact =1/5,069 =0.20 min-1
(also on this page, place not known: -1 0 1 2 3 0 50 100 log [FM011] (µM) DDT (%) -1 0 1 2 3 0 50 100 log [ZP308] (µM) DDT activity (%) 0.0 0.5 1.0 1.5 2.0 0 50 100 log [ZP307] (µM) DDT activity (%) 1.4 1.6 1.8 2.0 2.2 0 50 100 log [FM031] (µM) DDT activity (%) pre -incubation cond itions pre -incubation activity o f (Table 1/y-intercept) […]
as §13, §14
ln (MIF tautomerase activity %)
Time-dependent inhibition on MIF Y = 7,476*X + 5,069
Time-dependent inhibition on MIF Y = 12,07*X + 4,234 […]
ln (MIF2 tautomerase activity %)
as §15

Assay [7] addresses T1, MIF. In words: Labeling of recombinant MIF by probe 8, SDS-PAGE in-gel fluorescence, competition. The settings on record: pre-treatment of MIF with competitor, Figure 2C, D. It counts as binding. The procedure:
(§16) 4. Purified protein labeling and Mass spectra
(§17) 4.1 MIF or MIF2 labeling with probe 8
(§18) MIF or MIF2 were diluted to desired concentration with PBS buffer and incubated with probe
(§19) 8 at corresponding concentration and for corresponding time. Subsequently, the mixture was
(§20) denatured (99 °C, 10 min). Labeled protein and free probe were separated by 12% Bis-Tris gel
(§21) (Bio-Rad Laboratories, #4561084). Probe 8 labeled protein was visualized using in-gel
(§22) 4.2 MIF or MIF2 labeling and mass spectra
(§23) Figure S2. Mass spectra of labeled MIF2. (A) Native MIF2 and probe 8 (B) or probe 9 (C)
as §6

The target in assay [8] is T2, MIF2. In words: Labeling of recombinant MIF2 by probe 8, SDS-PAGE in-gel fluorescence, competition. It counts as binding. The settings on record: Figure 2G. Here is the method:
as §16, §17, §18, §19, §20, §21, §22, §23, §6

Where two headings read alike, the source gives them in different places.

This note sets out measurements from article PMC9299485, “4‐Iodopyrimidine Labeling Reveals Nuclear Translocation and Nuclease Activity for Both MIF and MIF2” (Chemistry (Weinheim an Der Bergstrasse, Germany), 2021).

Consider `O=C(NCCNc1ccc([N+](=O)[O-])c2nonc12)c1ccc(-c2cc(I)ncn2)cc1` [Compound 8], for which the IC50 (commonly the midpoint of a concentration-inhibition curve) in assay [1] (Table 2, 10 min pre-incubation, ±SD, n=3, read-out: IC50 MIF) was 0.27 ± 0.085 µM; in assay [1] (approximate, read-out: IC50 on MIF), around 0.2 µM; in assay [4] (Table 2, 10 min pre-incubation, ±SD) it was 20 ± 2.2 µM. In addition, in assay [2], the “effect on DNA cleavage by MIF2” value is recorded as “could not rescue DNA cleavage”. In assay [3], the “effect on DNA cleavage by MIF” value is “could not rescue DNA cleavage”. Also, in assay [4], the “improvement of potency for MIF2 inhibition compared to parental inhibitor 2” value is on record as 2–6 factor. Further, in assay [5], the “kinact MIF2 (rate of enzyme inactivation)” value was 0.088 ± 0.012 min⁻¹. The KI (inactivation) worked out at 26 ± 3.2 µM in assay [5] (read-out: KI MIF2 (inhibition constant)) and 1.5 ± 0.2 µM in assay [6] (Kitz-Wilson analysis, ±SD, n=3, read-out: KI MIF (inhibition constant)). Also, the kinact (usually the rate constant of inactivation at saturating inhibitor) was 0.001 to 0.0015 s⁻¹ in assay [5] (read-out: kinact MIF2 (rate of enzyme inactivation)) and 0.00333 s⁻¹ in assay [6] (Kitz-Wilson analysis, ±SD, n=3, read-out: kinact MIF (rate of enzyme inactivation) (converted)). Besides, in assay [6] (KI higher than IC50), the “KI on MIF relative to IC50” value is recorded as “about 10 times”.
Take `O=C(O)c1ccc(-c2cc(I)ncn2)cc1` [Compound 2]: the IC50 worked out at 5 ± 0.46 µM in assay [1] (Table 1, tautomerase activity, mean±SD, n=3, read-out: IC50 MIF) and 125 ± 15 µM in assay [4] (Table 1, tautomerase activity, mean±SD). The “potency relative to corresponding chloro-substituted intermediate” value in assay [1] (iodo compound vs chloro intermediate, Table S1) was “at least two times more potent”. In addition, the “labeling of MIF by probe 8 after prior treatment with inhibitor” value in assay [7] is listed as “abolished”. Besides, the “labeling of MIF2 by probe 8 after pre-incubation with inhibitor” value in assay [8] is on record as “outcompeted”.
